Experimental data published in the NIST ThermoML archive (doi:10.1016/j.jct.2012.11.011).

Experiment: xn = mol fraction of the nth substance listed
Conditions: Liquid, Vibrating tube method

CCOC(=O)OCC [diethyl carbonate] + CCCCCCCCCC
mass density [kg/m3]
Conditions | x1 = 0.0538 | x1 = 0.1716 | x1 = 0.2151 | x1 = 0.3257 | x1 = 0.5032 | x1 = 0.5482 | x1 = 0.7985 | x1 = 0.8989 | x1 = 0.9487
288.15 K, 100 kPa | 740.8 | 759.4 | 766.3 | 786.5 | 821.3 | 832.2 | 903.2 | 937.5 | 956.9
288.15 K, 5000 kPa | 744.5 | 763.3 | 770.2 | 790.5 | 826.7 | 836.6 | 907.4 | 943.6 | 963
288.15 K, 10000 kPa | 748 | 766.8 | 773.7 | 794.3 | 830.7 | 840.6 | 911.5 | 947.7 | 967.1
288.15 K, 20000 kPa | 754.6 | 773.6 | 780.5 | 801.2 | 837.8 | 847.8 | 919 | 955.4 | 974.8
288.15 K, 30000 kPa | 760.6 | 780.9 | 786.9 | 807.5 | 844.6 | 854.5 | 926 | 962.6 | 981.9
288.15 K, 40000 kPa | 766.4 | 785.6 | 792.8 | 813.8 | 850.9 | 860.9 | 932.8 | 969.5 | 988.9
298.15 K, 100 kPa | 733.1 | 751.2 | 758 | 777.9 | 813.5 | 823.1 | 892.8 | 928.3 | 947.6
298.15 K, 5000 kPa | 737.6 | 755.8 | 762.6 | 782.6 | 818.2 | 827.8 | 897.7 | 933.5 | 952.7
298.15 K, 10000 kPa | 740.7 | 759.1 | 766 | 786.1 | 821.9 | 831.7 | 901.5 | 937.5 | 956.6
298.15 K, 20000 kPa | 747.7 | 766.2 | 773.1 | 793.5 | 829.7 | 839.4 | 909.6 | 945.7 | 964.8
298.15 K, 30000 kPa | 753.9 | 772.6 | 779.8 | 800.2 | 836.7 | 846.5 | 917.1 | 953.2 | 972.2
298.15 K, 40000 kPa | 759.8 | 778.7 | 785.8 | 806.5 | 843.3 | 853.1 | 924.1 | 960.2 | 979.3
308.15 K, 100 kPa | 725.5 | 743.2 | 749.9 | 769.4 | 804.4 | 813.9 | 882.5 | 917.7 | 936.6
308.15 K, 5000 kPa | 729.6 | 747.5 | 754.3 | 773.9 | 809 | 818.4 | 887.3 | 922.6 | 941.5
308.15 K, 10000 kPa | 733.6 | 751.6 | 758.4 | 778.1 | 813.5 | 823 | 892 | 927.1 | 946.2
308.15 K, 20000 kPa | 740.7 | 758.9 | 765.9 | 785.9 | 821.4 | 831 | 900.5 | 935.7 | 954.6
308.15 K, 30000 kPa | 747.5 | 765.8 | 772.7 | 792.9 | 828.9 | 838.4 | 908.2 | 943.8 | 962.7
308.15 K, 40000 kPa | 753.6 | 772.1 | 779.1 | 799.4 | 835.8 | 845.3 | 915.6 | 951.2 | 970.2

COC(=O)OC [dimethyl carbonate] + CCCCCCCC
mass density [kg/m3]
Conditions | x1 = 0.0535 | x1 = 0.0978 | x1 = 0.3935 | x1 = 0.496 | x1 = 0.5475 | x1 = 0.5937 | x1 = 0.7002 | x1 = 0.8013 | x1 = 0.8979 | x1 = 0.9502
288.15 K, 100 kPa | 716.4 | 723.8 | 791.6 | 822.9 | 840.9 | 854.9 | 899.6 | 941.7 | 1005 | 1036.8
288.15 K, 5000 kPa | 719.8 | 727.9 | 796.9 | 827.5 | 844.6 | 862 | 904.6 | 952.4 | 1009 | 1043.2
288.15 K, 10000 kPa | 723.6 | 731.9 | 801.1 | 831.8 | 849 | 866.2 | 908.9 | 956.9 | 1013.3 | 1047.5
288.15 K, 20000 kPa | 730.9 | 739.3 | 808.8 | 839.6 | 857 | 874.3 | 917 | 965 | 1021.7 | 1055.7
288.15 K, 30000 kPa | 737.5 | 745.8 | 816 | 846.9 | 864.3 | 881.6 | 924.4 | 972.5 | 1029.1 | 1063.1
288.15 K, 40000 kPa | 743.7 | 752 | 822.8 | 853.8 | 871.2 | 888.7 | 931.6 | 979.7 | 1036.3 | 1070.4
298.15 K, 100 kPa | 707.4 | 715.3 | 782.6 | 812.6 | 829.5 | 846.5 | 888.6 | 936 | 992.1 | 1025.9
298.15 K, 5000 kPa | 712.2 | 720.2 | 787.8 | 817.9 | 834.9 | 851.7 | 893.9 | 941.4 | 997.3 | 1031.1
298.15 K, 10000 kPa | 715.9 | 724.1 | 791.8 | 822 | 839 | 856.1 | 898.1 | 945.6 | 1001.5 | 1035.3
298.15 K, 20000 kPa | 723.6 | 731.7 | 800.1 | 830.4 | 847.5 | 864.6 | 906.8 | 954.2 | 1010.1 | 1043.7
298.15 K, 30000 kPa | 730.5 | 738.7 | 807.7 | 838.1 | 855.3 | 872.4 | 914.8 | 962.1 | 1018 | 1051.7
298.15 K, 40000 kPa | 736.8 | 745.1 | 814.6 | 845.1 | 862.5 | 879.6 | 922 | 969.7 | 1025.6 | 1059.1
308.15 K, 100 kPa | 699.2 | 706.9 | 772.9 | 802.3 | 819 | 835.7 | 877.3 | 924.1 | 979.6 | 1013.1
308.15 K, 5000 kPa | 704 | 711.8 | 778.1 | 807.6 | 824.2 | 841 | 882.6 | 929.2 | 984.6 | 1018.1
308.15 K, 10000 kPa | 708.3 | 716.2 | 782.8 | 812.4 | 829.1 | 845.9 | 887.5 | 934.4 | 989.6 | 1023.1
308.15 K, 20000 kPa | 716.3 | 724.3 | 791.5 | 821.3 | 838.1 | 854.9 | 896.6 | 943.4 | 998.7 | 1032.1
308.15 K, 30000 kPa | 723.7 | 731.6 | 799.6 | 829.5 | 846.4 | 863.3 | 905 | 951.9 | 1007.1 | 1040.4
308.15 K, 40000 kPa | 730.4 | 738.4 | 806.9 | 836.9 | 853.9 | 870.8 | 912.8 | 959.7 | 1015 | 1048.3
